Experimental data: the supplement of paper PMC10331698
± gives the standard deviation of the averaged measurements.

Assays:
Assay in all cases: level (log10 ratio to DMSO vehicle control); higher = higher biomarker level / cell amount than vehicle control
[1] = compound: O=C(O)C(F)(F)C(F)(F)C(F)(F)OC(F)(F)F [Perfluoro(4-methoxybutanoic) acid] (in DMSO)
Protocol: (§1)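 BioMAP Diversity Plus panel of 12 human primary cell co-culture systems (3C, 4H, LPS, SAg, BT, BF4T, BE3C, CASM3C, HDF3CGF, KF3CT, MyoF, Mphg). Compounds were added 1 h before stimulation and left for 24 h (MyoF 48 h; BT 72 h for soluble read-outs or 6 d for IgG). Biomarkers were read by ELISA, cytotoxicity by SRB, PBMC viability and proliferation by Alamar Blue. Each well value was divided by the mean of 8 DMSO control wells on the same plate and log10 transformed; duplicate blinded samples were tested at 4 concentrations.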

[2] = compound: C[C@@H]1C[C@H]2[C@@H]3CCC4=CC(=O)C=C[C@]4(C)[C@@]3(F)[C@@H](O)C[C@]2(C)[C@@]1(O)C(=O)COP(=O)(O)O [Dexamethasone sodium phosphate] (in DMSO)
Protocol: as §1

[3] = compound: OCC(F)(F)C(F)(F)C(F)(F)C(F)F [1H,1H,5H-Perfluoropentanol] (in DMSO)
Protocol: as §1

[4] = compound: O=S(=O)(O)C(F)(F)C(F)(F)C(F)(F)C(F)(F)C(F)(F)C(F)(F)C(F)(F)F [Perfluoroheptanesulfonic acid] (in DMSO)
Protocol: as §1

[5] = compound: OCC(F)(F)C(F)(F)C(F)(F)C(F)(F)C(F)(F)C(F)(F)CO [1H,1H,8H,8H-Perfluorooctane-1,8-diol] (in DMSO)
Protocol: as §1

[6] = compound: C=C(C)C(=O)OCCC(F)(F)C(F)(F)C(F)(F)C(F)(F)C(F)(F)C(F)(F)C(F)(F)C(F)(F)F [8:2 Fluorotelomer methacrylate] (in DMSO)
Protocol: as §1

Row | Test System | level (log10) ([1]; 6700 nM) | level (log10) ([1]; 20000 nM) | level (log10) ([1]; 60000 nM) | level (log10) ([2]; 1500 nM) | level (log10) ([2]; 4400 nM) | level (log10) ([2]; 13000 nM) | level (log10) ([2]; 40000 nM) | level (log10) ([3]; 6700 nM) | level (log10) ([3]; 20000 nM) | level (log10) ([3]; 60000 nM) | level (log10) ([4]; 1500 nM) | level (log10) ([4]; 4400 nM) | level (log10) ([4]; 13000 nM) | level (log10) ([4]; 40000 nM) | level (log10) ([5]; 6700 nM) | level (log10) ([5]; 20000 nM) | level (log10) ([5]; 60000 nM) | level (log10) ([6]; 6700 nM) | level (log10) ([6]; 20000 nM)
1 | 3C:CCL2/MCP-1 | -0.012 ± 0.0028 | -0.006 ± 0.0028 | 0.031 ± 0.041 | 0.012 ± 0.013 | -0.0125 ± 0.005 | -0.0155 ± 0.00071 | -0.004 ± 0.013 | -0.0055 ± 0.015 | 0.03 ± 0.024 | 0.042 ± 0.045 | -0.0035 ± 0.005 | -0.0065 ± 0.0021 | 0.002 ± 0.0014 | 0.01 ± 0.0014 | -0.006 ± 0.0014 | -0.0175 ± 0.0092 | 0.002 ± 0.027 | 0.0115 ± 0.012 | 0.009 ± 0.0014
2 | 3C:CD54/ICAM-1 | -0.0205 ± 0.011 | -0.0275 ± 0.00071 | -0.029 ± 0.0014 | -0.006 ± 0.04 | -0.019 ± 0.013 | -0.0145 ± 0.022 | -0.0125 ± 0.00071 | -0.028 ± 0.0085 | -0.003 ± 0.0099 | 0.0125 ± 0.023 | 0.0085 ± 0.005 | -0.003 ± 0.0042 | -0.001 ± 0.013 | -0.0015 ± 0.0021 | 0.0045 ± 0.0035 | 0.0025 ± 0.019 | 0.0015 ± 0.022 | -0.0125 ± 0.016 | -0.0095 ± 0.025
3 | 3C:CD62E/E-Selectin | -0.012 ± 0.057 | -0.0085 ± 0.046 | -0.014 ± 0.0085 | -0.0055 ± 0.011 | -0.024 ± 0.024 | -0.005 ± 0.024 | 0.0005 ± 0.0078 | -0.018 ± 0.018 | -0.015 | 0.008 ± 0.0014 | -0.01 ± 0.021 | -0.018 | -0.024 ± 0.017 | 0.005 ± 0.0014 | 0.0005 ± 0.013 | -0.007 ± 0.0085 | 0.015 ± 0.013 | -0.024 ± 0.0085 | -0.0225 ± 0.005
4 | 3C:CD106/VCAM-1 | -0.007 ± 0.0071 | -0.0145 ± 0.035 | -0.0265 ± 0.0078 | 0.0035 ± 0.043 | -0.009 ± 0.016 | -0.031 ± 0.017 | -0.0265 ± 0.0064 | -0.0245 ± 0.0078 | -0.012 | 0.0075 ± 0.0035 | 0.001 ± 0.0042 | -0.011 ± 0.0014 | -0.016 ± 0.0028 | -0.0185 ± 0.00071 | -0.0205 ± 0.0021 | -0.018 ± 0.0042 | -0.007 ± 0.0057 | -0.0205 ± 0.019 | -0.0445 ± 0.015
5 | 3C:CD141/Thrombomodulin | 0.003 ± 0.055 | -0.0165 ± 0.11 | -0.0245 ± 0.12 | 0.0105 ± 0.074 | -0.015 ± 0.052 | -0.0055 ± 0.04 | -0.045 ± 0.062 | -0.006 ± 0.011 | -0.013 ± 0.013 | 0.0195 ± 0.011 | 0.014 ± 0.013 | -0.0085 ± 0.028 | -0.035 ± 0.064 | -0.042 ± 0.028 | -0.015 ± 0.0057 | -0.0075 ± 0.016 | -0.001 ± 0.013 | -0.031 ± 0.055 | -0.033 ± 0.02
6 | 3C:CD142/Tissue Factor | 0.0125 ± 0.077 | 0.013 ± 0.095 | -0.021 ± 0.12 | 0.034 ± 0.038 | 0.0265 ± 0.015 | 0.0335 ± 0.0078 | 0.0775 ± 0.028 | -0.0095 ± 0.00071 | -0.014 ± 0.025 | 0.021 ± 0.0085 | 0.0375 ± 0.011 | 0.021 ± 0.031 | 0.048 ± 0.048 | 0.0665 ± 0.1 | -0.0245 ± 0.026 | 0.0195 ± 0.026 | 0.0425 ± 0.012 | 0.0445 ± 0.047 | 0.0595 ± 0.022
7 | BE3C:Keratin 8/18 | -0.013 ± 0.0057 | -0.002 ± 0.0071 | -0.004 ± 0.011 | 0.0045 ± 0.012 | 0.0035 ± 0.00071 | -0.025 ± 0.0042 | -0.0165 ± 0.0064 | -0.0225 ± 0.011 | 0.0135 ± 0.005 | 0.0035 ± 0.025 | -0.013 ± 0.035 | -0.0065 ± 0.037 | -0.015 ± 0.033 | -0.0185 ± 0.033 | -0.0155 ± 0.022 | -0.017 ± 0.0014 | -0.0375 ± 0.0035 | -0.0195 ± 0.037 | -0.008 ± 0.071
8 | BE3C:MMP-1 | 0.0115 ± 0.012 | -0.009 ± 0.041 | 0.029 ± 0.095 | -0.113 ± 0.059 | -0.0825 ± 0.11 | -0.137 ± 0.052 | -0.141 ± 0.069 | -0.014 ± 0.011 | 0.029 ± 0.024 | 0.023 ± 0.03 | 0.011 ± 0.018 | 0.019 ± 0.023 | 0.05 ± 0.021 | 0.133 ± 0.022 | 0.0125 ± 0.012 | -0.0055 ± 0.013 | 0.0425 ± 0.056 | 0.0135 ± 0.012 | -0.003 ± 0.0057
9 | BE3C:MMP-9 | -0.008 ± 0.0014 | 0.0035 ± 0.0064 | 0.011 ± 0.0057 | -0.02 ± 0.0028 | -0.0185 ± 0.013 | -0.013 ± 0.0028 | -0.036 ± 0.0099 | -0.009 ± 0.016 | 0.0235 ± 0.018 | 0.0175 ± 0.022 | -0.0015 ± 0.032 | -0.0125 ± 0.081 | -0.025 ± 0.041 | 0.0055 ± 0.04 | -0.001 ± 0.028 | 0.0005 ± 0.016 | 0.0015 ± 0.005 | -0.0125 ± 0.06 | -0.024 ± 0.085
10 | BE3C:PAI-I | -0.005 ± 0.0085 | -0.001 ± 0.025 | -0.0005 ± 0.0021 | 0.0905 ± 0.025 | 0.109 ± 0.016 | 0.098 ± 0.028 | 0.0635 ± 0.054 | -0.043 ± 0.021 | 0.023 ± 0.048 | 0.0495 ± 0.047 | 0.016 ± 0.044 | 0.047 ± 0.057 | 0.0385 ± 0.06 | 0.033 ± 0.078 | 0.025 ± 0.024 | 0.031 ± 0.0099 | 0.0325 ± 0.011 | 0.001 ± 0.041 | -0.013 ± 0.076
11 | BE3C:SRB | 0.0015 ± 0.0021 | 0.0005 ± 0.0078 | 0.003 ± 0.0099 | 0.0135 ± 0.013 | 0.003 ± 0.0014 | 0.002 ± 0.0014 | 0.0115 ± 0.0064 | 0 ± 0.0014 | 0.0025 ± 0.0092 | 0.007 ± 0.011 | 0.015 ± 0.014 | -0.005 ± 0.0099 | -0.0005 ± 0.0021 | -0.0055 ± 0.0064 | -0.003 ± 0.0028 | -0.0025 ± 0.0021 | -0.0015 ± 0.0035 | -0.003 | 0.0025 ± 0.005
12 | BE3C:tPA | 0.002 ± 0.023 | -0.0065 ± 0.011 | -0.0015 ± 0.016 | -0.149 ± 0.029 | -0.175 ± 0.013 | -0.219 ± 0.062 | -0.197 ± 0.0035 | -0.019 ± 0.0042 | -0.022 ± 0.017 | -0.0035 ± 0.011 | 0.023 ± 0.041 | 0.0415 ± 0.073 | 0.066 ± 0.1 | 0.0595 ± 0.086 | 0.0105 ± 0.016 | 0.01 ± 0.011 | 0.03 ± 0.0057 | -0.0125 ± 0.067 | -0.036 ± 0.082
13 | BE3C:uPA | -0.004 ± 0.017 | -0.0125 ± 0.012 | 0.0035 ± 0.005 | -0.0165 ± 0.005 | -0.0125 ± 0.021 | -0.036 ± 0.027 | -0.051 ± 0.038 | -0.0105 ± 0.016 | 0.001 ± 0.011 | 0.002 ± 0.041 | -0.0055 ± 0.023 | -0.004 ± 0.034 | -0.0235 ± 0.032 | -0.018 ± 0.038 | -0.012 ± 0.0071 | -0.0125 ± 0.005 | -0.009 ± 0.024 | -0.0145 ± 0.012 | -0.0145 ± 0.059
14 | CASM3C:CCL2/MCP-1 | -0.01 ± 0.011 | -0.008 ± 0.0057 | 0.017 ± 0.031 | -0.0825 ± 0.05 | -0.105 ± 0.037 | -0.113 ± 0.0042 | -0.086 ± 0.047 | -0.0115 ± 0.012 | -0.0105 ± 0.013 | -0.0015 ± 0.011 | -0.007 ± 0.088 | -0.043 ± 0.024 | -0.034 ± 0.016 | -0.021 ± 0.0028 | -0.0175 ± 0.011 | -0.024 ± 0.0057 | 0.0015 ± 0.019 | -0.011 ± 0.0099 | 0.0025 ± 0.037
15 | CASM3C:CD87/uPAR | -0.0135 ± 0.04 | -0.0095 ± 0.0092 | -0.0255 ± 0.016 | 0.0255 ± 0.011 | 0.0045 ± 0.005 | -0.026 ± 0.024 | -0.0215 ± 0.076 | 0.0065 ± 0.021 | 0.025 ± 0.017 | 0.005 ± 0.021 | -0.028 ± 0.042 | 0.0045 ± 0.049 | -0.0165 ± 0.049 | -0.0555 ± 0.035 | 0.0025 ± 0.0021 | -0.0325 ± 0.0092 | -0.036 ± 0.038 | -0.006 ± 0.05 | -0.022 ± 0.033
